The text below walks through data of a melting point compilation (Tetko et al.; mined from patent text by program, amines drawn as free bases though some values may be those of a salt).

Usually melting point stands for the temperature, or range, at which the solid turns liquid.

Take `Cc1cccc(-c2nc3ccc(O)cc3n2Cc2ccccc2Br)c1`: the melting point stood at 218 °C.
On to `COC(=O)c1ccc(Cl)c([N+](=O)[O-])c1Cl`, for which the melting point was 72 to 74 °C.
As to `CCN1c2ccc(C#N)cc2N(CCCCS(=O)(=O)O)C1C` (stereo not given), the melting point was more than 260 °C.
Regarding `CCOc1ccc(OC)c2c1CCC([N+](=O)[O-])=C2`, the melting point was in the range of 90 to 92 °C.
As for `CCCCCCCCCCCCCCOc1cccc(CC(=O)Nc2ccccc2CBr)c1`, the figure is 103 to 106 °C; as for `O=C1NCCc2ccc(O)cc21`, 201 to 203 °C.
`CNS(=O)(=O)c1ccccc1Nc1nc(Nc2ccc3c(c2)CCCC(=O)N3)ncc1Cl`: the melting point fell in the range of 276 to 282 °C.
As for `CC(C)(CO)NS(=O)(=O)c1ccc(Cl)c(NC(=O)c2cnn3c(C(F)(F)F)cc(-c4ccc(C(F)(F)F)cc4)nc23)c1`, the figure is 246 °C.
As to `C=CCCCCCCOc1ccc(C(CC(C(=O)OCC)C(=O)OCC)NC(C)=O)cc1` (stereo not given), the melting point was 50 to 53 °C.
As for `CC(OC(=O)OC1CC(=O)NC1=O)OC(=O)C(C)C` (stereo not given), the figure is 50 to 54 °C; as for `C=CCNC(=O)c1cnc2c(OC)cccc2c1Cl`, 114 to 116 °C; as for `CSc1ncc(S(N)(=O)=O)c(Nc2cccc(C)c2)n1`, 184 °C.
Compound `c1ccc2c(c1)N=C(C1CCCCC1)c1cccc3c1N2CC3` gave a melting point of 104 to 106 °C.
Consider `CCCOc1cc(C)c2cc(Cn3ccnc3)ccc2n1`, for which the melting point amounted to 138 °C.
As to `O=S(=O)(c1ccccc1)c1ccc(OCc2ccccc2)c(O)c1`, the melting point is 144 to 148 °C.
Compound `CS(=O)(=O)c1ccc(-c2cc(C(=O)CCCO[N+](=O)[O-])nn2-c2ccc(Br)cc2)cc1` gave a melting point of 150 to 152 °C.
`CC1(C)C=C(c2ccccn2)c2cc(C(F)(F)F)ccc2OC1`: the melting point is 90 °C.
The value for `Oc1ccc(C2(c3ccc(O)cc3)c3ccccc3-c3ccccc32)cc1` was 215 °C; that for `Cc1ccc(-c2cccc(/C=C/C(=O)Nc3ccc(CN4CCCC(CO)C4)cc3)c2)cc1` (stereo not given) was 153 to 154 °C; that for `CNc1nc(C)c(-c2ccnc(Nc3ccc(Cl)c(CO)c3)n2)s1` was 191 to 193 °C.
For the compound `Nc1ccc(C(O)(C(F)(F)F)C(F)(F)F)cc1S`, the melting point was in the range of 121 to 123 °C.
On to `CC1=C(C(=O)OC(C)C)C(c2cccc([N+](=O)[O-])c2)C(C(=O)O)=NN1` (stereo not given), for which the melting point amounted to 195 °C.
As to `C=C(C)CC(O)C(Br)(Br)Br` (stereo not given), the melting point fell in the range of 64 to 65 °C.
Turning to `CCCCS(=O)(=O)c1cn(C)c2ccccc2c1=O`, the melting point lay in the range of 107 to 108 °C.
As for `CN(C)C(=O)NC1(Cc2ccccc2)CCN(Cc2ccccc2)CC1`, the figure is 131 °C; as for `CC[C@@H](C)NCc1cnc2c(C)c(NC(=O)c3ccc(OC[C@@H]4CCCO4)cc3)ccc2c1`, 118 to 119 °C; as for `C#CCn1c(-c2ccc(Cl)nc2Cl)nc(OS(=O)(=O)C(F)(F)F)c(OC)c1=O`, 133 to 135 °C.
`CC(Nc1nc(-c2ccc([N+](=O)[O-])cc2)nc2[nH]ccc12)c1ccccc1` (stereo not given) registered a melting point of more than 250 °C.
As for `Cc1ccc([C@@H]2CO[C@@H](c3ccc(C)cc3)CO2)cc1`, the melting point came out at 200 °C.
As for `CCOC(=O)CC(=O)c1cc2cc(F)c(F)c(F)c2nc1Cl`, the figure is 78 to 80 °C; as for `CCc1cnc2c(NC(=O)c3c(Cl)cccc3Cl)cccc2c1CCl`, 193 to 194 °C.
In turn, `CCCC(=O)Nc1nc(CN2CCN(C(c3ccccc3)c3ccccc3)CC2)cs1` had a melting point of 128 to 135 °C.
`CC(C)(O)Cn1c(N)nc2c(N)nc3c(c21)CCCC3` gave a melting point of more than 270 °C.
Compound `CCCCCC(C)C(C)c1cc(O)c2c(c1)OC(C)(C)C1=C2CN(CC(=O)Nc2ccc(Cl)cc2)CC1` (stereo not given) yielded a melting point of 159 to 160 °C.
As for `O=C1CC(c2ccc(O)cc2)Oc2cc(O)c(C3OC(CO)C(O)C(O)C3O)c(O)c21` (stereo not given), the figure is 195 to 196 °C.
